Earlier results, collected in patent US20140322356A1, “CTC BIOMARKER ASSAY TO COMBAT BREAST CANCER BRAIN METASTASIS” (Baylor College of Medicine, priority 2011, published 2014).

What was measured:
[1] = system: MDA-MB-435 carcinoma cells; details: MDA-MB-435 cells selected for metastatic growth in the brain
heparanase (HPSE) = target: T1, heparanase (HPSE) (Homo sapiens, UniProt Q9Y251); details: statement from literature, no value given
T1 sequence (Q9Y251 36-543): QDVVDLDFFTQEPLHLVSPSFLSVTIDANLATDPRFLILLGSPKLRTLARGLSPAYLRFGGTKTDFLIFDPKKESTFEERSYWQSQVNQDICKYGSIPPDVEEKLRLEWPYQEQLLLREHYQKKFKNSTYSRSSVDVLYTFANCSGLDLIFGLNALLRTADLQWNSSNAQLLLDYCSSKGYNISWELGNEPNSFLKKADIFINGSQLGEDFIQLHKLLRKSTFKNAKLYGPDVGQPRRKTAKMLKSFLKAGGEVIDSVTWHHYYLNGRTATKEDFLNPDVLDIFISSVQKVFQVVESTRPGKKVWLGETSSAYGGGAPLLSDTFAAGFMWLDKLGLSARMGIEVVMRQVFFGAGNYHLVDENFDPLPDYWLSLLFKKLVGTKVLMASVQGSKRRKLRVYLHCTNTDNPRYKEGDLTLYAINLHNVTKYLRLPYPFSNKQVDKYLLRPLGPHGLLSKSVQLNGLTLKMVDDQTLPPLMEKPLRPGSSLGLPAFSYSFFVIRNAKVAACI

Molecule | tumor cell migration and invasion in vitro [1] | inhibition of heparanase (heparanase (HPSE))
C[C@H](NC(=O)Cc1cc(F)cc(F)c1)C(=O)N[C@H](C(=O)OC(C)(C)C)c1ccccc1 [DAPT] | inhibited | –
Heparin | – | inhibitor of HPSE
